Assay results as given in patent US20250042848A1, “DEUTERATED FUNCTIONALIZED DERIVATIVES OF alpha-ALANINE, IN [sequence] FOR THE TREATMENT OF NEUROLOGICAL DISEASES” (UNIWERSYTET JAGIELLONSKI, priority 2021, published 2025).

Columns and labels:
[1] = system: human liver microsomes (HLMs); experiment: In vitro metabolic stability, human liver microsomes; format: in vitro ADME; details: 120-minute incubation with HLMs
Description: (§1) Metabolic stability assessment was performed using mouse (MLMs) and human (HLMs) liver microsomes purchased from Sigma-Aldrich (St. Louis, MO, USA). The detailed methodology is described in the literature (Kamiński et al. J. Med. Chem. 2015, 58, 5274-5286). The reaction mixture was prepared by mixing […] of the tested compound with mouse or human microsomes (1 mg/mL) in 10 mM TRIS-HCl buffer. The reaction mixture was pre-incubated for 5 min at 37° C. After the initial incubation, 50 μL of the NADPH Regeneration System (Promega, Madison, WI, USA) was added to initiate the reaction. The reaction mixture was then incubated for 120 min at 37° C. 200 μL of cold extra pure methanol was added to complete the reaction. The mixture was then centrifuged at 14,000 g for 15 min and the supernatants were analyzed using a Waters ACQUITY™ TQD LC/MS system with a TQ detector (Waters, Milford, USA). Each experiment was performed in triplicate.

[2] = system: human liver microsomes (HLMs); details: cited from earlier work
[3] = system: motor coordination of mice; details: in vivo; cited from earlier work
CYP3A4 = CYP3A4 (Homo sapiens, UniProt P08684); details: cited from earlier work
[4] = system: maximal electroshock seizures in mice; experiment: Maximal electroshock seizure test (MES); format: in vivo
Description: (§2) Initial screening was performed on groups of 4 mice. The mean effective dose (ED50) in a given test and the neurotoxic dose in the rotarod test (TD50) were estimated on the basis of the results obtained on 3-4 groups of animals consisting of 6 animals.
In the maximal electroshock seizure test (MES), the seizures were induced by 500 V, 25 mA electrical stimulus of 0.2 s in duration. The electrical pulse was generated using an electric shock generator (Rodent shocker, Type 221, Hugo Sachs Elektronik, Germany) and delivered to the animal using electrodes placed on the auricles. The study was conducted 30 minutes/2 hours after intraperitoneal administration of the compounds at various doses. During the experiment, the number of animals that experienced a seizure episode in the form of hindlimb tonic extension was counted (Łuszczki, J.J. et al. Fundam. Clin. Pharmacol. 2008, 22, 69-74).
(§3) The ED50 (effective dose) and TD50 (toxic dose) values along with the corresponding 95% confidence limits were calculated based on the Litchfield and Wilcoxon method (Litchfield, J.T.; Wilcoxon, F. J. Pharmacol. Exp. Ther. 1949, 96, 99-113). To perform a statistical evaluation of the results in the scPTZ test, one-way ANOVA variance analysis followed by Dunnett's post hoc test were used. The values were considered statistically significant if p<0.05.

[5] = system: psychomotor seizures induced by a 44 mA, 6 Hz stimulus in mice; experiment: Psychomotor seizure test 6 Hz (44 mA); format: in vivo; details: in mg/kg
Description: as §2
(§4) In the psychomotor seizure test (6 Hz test), seizures were induced by a 32 mA and/or 44 mA electrical stimulus of a frequency of 6 pulses per second. An electrical pulse was generated using an electric shock generator (ECT Unit 57800; Ugo Basile, Gemonio, Italy) and delivered to the animal using corneal electrodes. Before starting the test, the eye surface was gently moistened with a solution of local anesthetic (1% lidocaine solution). The study was conducted 30 minutes/2 hours after intraperitoneal administration of the compounds at various doses. An electrical stimulus was delivered continuously for a period of 3 seconds, followed by observation of the animal for a period of 10 seconds. During the experiment, the number of animals with an episode of psychomotor convulsions was counted: motor inhibition, staggering, maintaining a sitting posture, forelimb clonus, twitching of the vibrissae and Straub-tail were observed (Leclercq, K.; Kaminski, R.M. Epilepsia 2015, 56, 310-318).
as §3

[6] = system: motor coordination of mice; experiment: Rotarod test (motor coordination, acute neurotoxicity); format: in vivo; details: in mg/kg
Description: as §2
The effect of the tested compounds on motor coordination was assessed in the rotarod test (May Commat, RR 0711 RotaRod, Turkey). The day before the actual experiment, the mice were trained on a rod rotating at 10 revolutions per minute (rpm) for 3 minutes. The experiment was performed 30 minutes and 2 hours after administration of the compounds. The motor coordination of the animals was tested at the speed of the rotating rod: 10 rpm for 60 seconds. The measure of neurotoxicity was the inability to stay on the rod for a given time (Łuszczki, J.J. et al. Eur. Neuropsychopharmacol. 2005, 6, 609-616).
as §3

[7] = system: pentylenetetrazole-induced clonic seizures in mice; experiment: Subcutaneous pentylenetetrazole (scPTZ) seizure test; format: in vivo; details: for ED50 scPTZ: mice, in mg/kg; for latency of the first episode of clonic seizures in the scPTZ test: control 740+212.5 seconds
Description: as §2
In the subsutaneous pentylenetetrazole seizure test, the animals received pentylenetetrazole at a dose of 100 mg/kg. Test compounds were administered 30 minutes and 2 hours before the experiment. After PTZ administration, the animals were placed individually in transparent cages and observed for a period of 30 minutes/2 hours. During the experiment, the number of animals with a clonic seizure lasting at least 3 s with loss of balance was counted. In addition, the latency of the onset of the first clonic seizure was measured and compared with the control group (Ferreri, G. et al. Pharmacol. Biochem. Behav. 2004, 77, 859-894; Łączkowski, K. et. al. J. Enzym Inhib. Med. Chem. 2016, 31, 1576-1582).
as §3

CYP2D9 = details: cited from earlier work
[8] = system: mouse liver microsomes (MLMs); experiment: In vitro metabolic stability, mouse liver microsomes; format: in vitro ADME; details: 120-minute incubation with MLMs, NADPH
Description: as §1

[9] = system: spontaneous locomotor activity of mice; details: mouse, in vivo; cited from earlier work
[10] = system: psychomotor seizures induced by a 32 mA, 6 Hz stimulus in mice; experiment: Psychomotor seizure test 6 Hz (32 mA); format: in vivo
Description: as §2, §4, §3

[11] = 0.5 h after i.p. administration
[12] = 2.0 h after i.p. administration

Sequence of CYP3A4 (P08684 whole entry): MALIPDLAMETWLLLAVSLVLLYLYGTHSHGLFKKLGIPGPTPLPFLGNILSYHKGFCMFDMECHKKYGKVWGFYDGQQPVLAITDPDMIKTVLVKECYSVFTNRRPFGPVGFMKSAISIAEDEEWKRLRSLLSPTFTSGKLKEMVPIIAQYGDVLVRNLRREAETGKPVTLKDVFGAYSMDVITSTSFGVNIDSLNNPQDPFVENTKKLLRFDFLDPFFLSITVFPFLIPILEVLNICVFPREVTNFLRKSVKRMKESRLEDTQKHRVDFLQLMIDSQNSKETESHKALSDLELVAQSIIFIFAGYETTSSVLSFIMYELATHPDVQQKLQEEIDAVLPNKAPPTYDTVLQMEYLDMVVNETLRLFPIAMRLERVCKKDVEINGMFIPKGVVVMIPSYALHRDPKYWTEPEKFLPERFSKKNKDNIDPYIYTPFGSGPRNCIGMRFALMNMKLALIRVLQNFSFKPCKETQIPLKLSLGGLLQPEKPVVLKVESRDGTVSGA

Row | Compound | metabolic stability [1] | metabolic stability on human microsomes [2] | effect on mouse motor coordination in the rotarod test [3] | interaction with CYP3A4 isoform of cytochrome P-450 (CYP3A4) | ED50 MES [4, 11] | ED50 MES [4, 12] | ED50 6 Hz (44 mA) [5, 11] | ED50 6 Hz (44 mA) [5, 12] | TD50 Rotarod [6, 11] | TD50 Rotarod [6, 12] | ED50 scPTZ [7, 11] | ED50 scPTZ [7, 12] | latency of the first episode of clonic seizures in the scPTZ test ([7]; dose 40 mg/kg) | latency of the first episode of clonic seizures in the scPTZ test ([7]; dose 60 mg/kg) | interaction with CYP2D9 isoform of cytochrome P-450 (CYP2D9) | metabolic stability (metabolites in UPLC chromatograms) [8] | sedative effect in spontaneous locomotor activity test on mice [9] | ED50 6 Hz (32 mA) [10, 11] | ED50 6 Hz (32 mA) [10, 12]
1 | C[C@H](C(=O)NCc1ccccc1)N1C(=O)CCC1=O [Compound 1, reference compound] | high metabolic stability | very high metabolic stability | minimal effect | no interaction | 57.7 mg/kg | 95.3 mg/kg | 77.3 | >200 | 236.2 | >300 | 30.6 | >130 | 1568+150.9 seconds | 1467+210.8 seconds | no interaction | no metabolites appeared | no sedative effect | 16.8 mg/kg | > 130 mg/kg
2 | [2H]C1([2H])C(=O)N([C@H](C)C(=O)NCc2ccccc2F)C(=O)C1([2H])[2H] [d4-(R)-4, (R)—N-(2-fluorobenzyl)-2-(2,5-dioxopyrrolidin-1-yl-3,3,4,4-d4) propanamide] | high metabolic stability |  |  |  | 20.5 mg/kg | 25.3 mg/kg | 51.6 | 36.3 | 127.2 | >300 |  |  |  |  |  |  |  | 12.8 mg/kg | 19.8 mg/kg
3 | [2H]C([2H])(NC(=O)[C@@H](C)N1C(=O)C([2H])([2H])C([2H])([2H])C1=O)c1ccccc1 [d6-(R)-5, (R)-2-(2,5-dioxopyrrolidin-1-yl-3,3,4,4-d4)-N-(phenylmethyl-d2) propanamide] | high metabolic stability |  |  |  | 33.4 mg/kg | 28.7 mg/kg | 85.6 | 50.8 | >100 | >300 |  |  |  |  |  |  |  |  | 
4 | [2H]C([2H])(NC(=O)[C@@H](C)N1C(=O)C([2H])([2H])C([2H])([2H])C1=O)c1ccccc1F [d6-(R)-7, (R)-2-(2,5-dioxopyrrolidin-1-yl-3,3,4,4-d4)-N-((2-fluorophenyl)methyl-d2) propanamide] | high metabolic stability |  |  |  |  |  | 25.1 | 33.5 | >100 | >300 |  |  |  |  |  |  |  | 12.5 mg/kg | 13.4 mg/kg
5 | [2H]c1c([2H])c([2H])c(CNC(=O)[C@@H](C)N2C(=O)C([2H])([2H])C([2H])([2H])C2=O)c([2H])c1[2H] [d9-(R)-2, (2R)-2-(2,5-dioxopyrrolidin-1-yl-3,3,4,4-d4)-N-((phenyl-d5)methyl) propanamide] | high metabolic stability |  |  |  | 45 mg/kg | 57.7 mg/kg | 78.3 | 109.8 | 165.4 | >300 |  |  |  |  |  |  |  | 18.2 mg/kg | 68 mg/kg
6 | [2H]c1c([2H])c([2H])c(C([2H])([2H])NC(=O)[C@@H](C)N2C(=O)C([2H])([2H])C([2H])([2H])C2=O)c([2H])c1[2H] [d11-(R)-6, (R)-2-(2,5-dioxopyrrolidin-1-yl-3,3,4,4-d4)-N-((phenyl-d5)methyl-d2) propanamide] | high metabolic stability |  |  |  | 29.5 mg/kg | 33.8 mg/kg | 57.6 | 70.4 | >100 | >300 |  |  |  |  |  |  |  |  | 
